Molecular target: T1, bfAANATα (Branchiostoma floridae, UniProt B9TUB5)
T1 construct: gene AANATalpha; full-length cDNA clone from B. floridae head, GST fusion (pGEX 4T-1), E. coli BL21Gold(DE3) pLysS
T1 sequence (B9TUB5 1-247): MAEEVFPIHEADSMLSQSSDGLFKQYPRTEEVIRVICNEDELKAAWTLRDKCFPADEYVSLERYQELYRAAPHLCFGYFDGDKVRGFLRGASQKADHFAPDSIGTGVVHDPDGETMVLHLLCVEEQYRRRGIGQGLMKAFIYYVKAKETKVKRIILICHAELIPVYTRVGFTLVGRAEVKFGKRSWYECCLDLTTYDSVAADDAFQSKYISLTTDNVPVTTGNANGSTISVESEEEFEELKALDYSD
Assay: acetyltransferase activity assay, recombinant GST fusion; also displaces CoA-HNE
Assay type: biochemical

CC(C)(CO[P@@](=O)(O)O[P@@](=O)(O)OC[C@H]1O[C@@H](n2cnc3c(N)ncnc32)[C@H](O)[C@@H]1OP(=O)(O)O)[C@@H](O)C(=O)NCCC(=O)NCCSCC(=O)NCCc1c[nH]c2ccccc12 [CoA-T]
IC50: 3 µM

— paper PMC2897805, “Evolution of AANAT: expansion of the gene family in the cephalochordate amphioxus” (2010)
